Source: patent US11840530B2, “Selective EP4 receptor antagonistic substance for treatment of cancer” (AskAt Inc., priority 2009, dated 2023)

Experiments:
breast cancer cells = conditions: non-patent literature 5; cited from earlier work
[1] = tested on: gastric tumor of K19-Wnt1/C2mE mice; test: Spontaneous gastric cancer model mice, tumor size by X-ray CT; format: in vivo, mouse; conditions: for sizes of tumors by X-ray CT (relative mean tumor area, FIG. 3): per os 3 mg/kg and 30 mg/kg once a day for five weeks, vs vehicle
Experimental: Among human gastric cancer patients, Wnt up-regulation is observed in 30% to 50%, and induction of COX-2 is observed in more than 70%. Therefore, the K19-Wnt1/C2mE is positioned as a mouse model which extrapolates human gastric cancer in terms of molecular mechanism (Nature Review Cancer, Volume 7, Pages 645-658, 2007).
The experiment was conducted using five spontaneous gastric cancer model mice at 50 weeks old (K19-Wnt1/C2mE mice). The mice develop large tumors in stomach at 50 weeks old, and the size of tumor can be measured with X-ray CT. The sizes of tumors were measured with X-ray CT before administration and at week 1, week 2, and week 3 after administration, and the sizes of tumors were compared. Compound A was continuously administered at a dose of 100 mg/kg twice a day for three weeks. A methyl cellulose was used as a vehicle.
Experiment was conducted using six gastric cancer model mice at 46 to 68 weeks old (K19-Wnt1/C2mE mice). Compound B was continuously administered per os at a dose of 3 mg/kg (n=2), 30 mg/kg (n=2) and vehicle control (n=2) once a day for five weeks. The measurements of tumor sizes were conducted in the same manner as example 1. It was confirmed by X-ray CT scanning that the sizes of tumors increased in a time-dependent manner during test period in two vehicle controls. […] In the FIG. 3, a relative value of the mean tumor area after treatment to that before treatment (0 w) set to 100 is shown with time. Solid square (▪) and solid diamond (♦) represent control model mice. Dotted triangle (▴) and dotted cross (X) represent model mice each administered compound B at a dose of 3 mg/kg. Solid star (*) and solid circle (●) represent model mice each administered compound B at a dose of 30 mg/kg.

[2] = tested on: colon26 (cell line derived from mouse colon cancer); test: colon26 subcutaneously implanted to CD2F1 mice, tumor weight; format: in vivo; conditions: vs vehicle
Experimental: A cell line derived from mouse colon cancer, colon26, was subcutaneously implanted to CD2F1 mice. (According to the method described in Int. J. Cancer, Volume 121, Pages 878-883, 2007, this model extrapolates the colon cancer development and growth in terms of molecular mechanism.) When the mean tumor weight reached 100 mg, vehicle (n=10), compound B once a day at a dose of 30 mg/kg (n=10), or compound C twice a day at a dose of 200 mg/kg (n=10) was administered for 20 days. The tumor weight was calculated as (major axis)×(minor axis)^2×0.5 using the measured values. […] In FIG. 4, solid square (▪), solid triangle (▴), and solid circle (●) represent a group administered vehicle (control), a group administered compound B, and a group administered compound C, respectively.

[3] = tested on: LL/2 (cell line derived from mouse lung cancer); test: LL/2 subcutaneously implanted to C57BL/6 mice, tumor weight; format: in vivo; conditions: vs vehicle
Experimental: A cell line derived from mouse lung cancer, LL/2, was subcutaneously implanted to C57BL/6 mice. (According to the method described in Cancer Research. Volume 58, Pages 2583-2587, 1998, this model extrapolates the lung cancer development and growth.) When the mean tumor weight reached 100 mg, vehicle (n=10), compound B once a day at a dose of 0.3 mg/kg (n=10), or compound C twice a day at a dose of 10 mg/kg (n=10) was administered for 25 days. The tumor weight was calculated as (major axis)×(minor axis)^2×0.5 using the measured values. […] In FIG. 5, solid square (▪), solid triangle (▴), and solid circle (●) represent a group administered vehicle (control), a group administered compound B, and a group administered compound C, respectively.

[4] = tested on: colon cancer cell (HCA-7); conditions: non-patent literature 4; cited from earlier work
[5] = tested on: azoxymethane-induced colon aberrant crypt foci; conditions: non-patent literature 6; cited from earlier work
[6] = tested on: intestinal polyp in APC gene knockout mice; conditions: non-patent literature 6; cited from earlier work

In the case of `O=C(O)CC/C=C\CC[C@H]1[C@H](N2CCOCC2)C(=O)C[C@H]1OCc1ccc(-c2ccccc2)cc1` [AH23848], the “metastasis of breast cancer cells” value (breast cancer cells) is given as “metastasis suppression”.

For `C[C@H](NC(=O)c1cc(Cl)ccc1Oc1ccc(F)cc1)c1ccc(C(=O)O)cc1` [Compound A, 4-((1S)-1-{[5-chloro-2-(4-fluorophenoxy)benzoyl]amino}ethyl)benzoic Acid], the “histological analysis of excised tissues after the treatment” value ([1]; 100 mg/kg twice a day for three weeks, visual observation) was “disappearance of irregular glandular branching in tumor epithelium”, the “relative tumor volume compared with untreated mice (FIG. 2)” value ([1]; 100 mg/kg twice a day for three weeks, vs 55 to 60 week old untreated K19-Wnt1/C2mE mice (n=7)) was “tumor was shrunk effectively” and the “tumor mass in CT images at three weeks post-administration” value ([1]; 100 mg/kg twice a day, all the five mice) was “tumor mass almost completely disappeared”. The “tumor size in the first week (X-ray CT)” value ([1]; 100 mg/kg twice a day, two individuals with particularly large tumor before administration) was “remarkable reductions of the tumor size”.

With `C[C@H](NC(=O)c1cc(Cl)cnc1Oc1cccc(F)c1)c1ccc(C(=O)O)cc1` [Compound B] the “sizes of tumors by X-ray CT (relative mean tumor area, FIG. 3)” value [1] was “reduced in a dose-dependent manner”, the “tumor size by X-ray CT at a dose of 3 mg/kg” value ([1]; per os 3 mg/kg once a day for five weeks) was “effective reduction of tumor size” and the “tumor lesions in autopsy” value ([1]; per os once a day for five weeks, compared with vehicle control group) was “remarkable shrinkages of tumor lesions”. The “tumor size (calculated tumor weight, FIG. 4)” value ([2]; 30 mg/kg once a day for 20 days) was “Remarkable reductions of tumor size” and the “tumor size (calculated tumor weight, FIG. 5)” value ([3]; 0.3 mg/kg once a day for 25 days) was “Remarkable reductions of tumor size”.

In the case of `CCc1nc2c(C)nc(C)cc2n1-c1ccc(CCNC(=O)NS(=O)(=O)c2ccc(C)cc2)cc1` [Compound C, 3-[2-(4-{2-ethyl-4,6-dimethyl-1H-imidazo[4,5-c]pyridin-1-yl}phenyl)ethyl]-1-[(4-methylbenzene)sulfonyl]urea], the “sizes of tumors by X-ray CT (relative mean tumor area, FIG. 3)” value [1] is reported as “tumor size dramatically reduced”, the “tumor size (calculated tumor weight, FIG. 4)” value ([2]; 200 mg/kg twice a day for 20 days) is reported as “Remarkable reductions of tumor size” and the “tumor size (calculated tumor weight, FIG. 5)” value ([3]; 10 mg/kg twice a day for 25 days) is reported as “Remarkable reductions of tumor size”.

For `CCCCc1nn(-c2ccccc2C(F)(F)F)c(=O)n1Cc1ccc(-c2ccccc2S(=O)(=O)NC(=O)c2sccc2C)cc1` [L-161,982], the “growth of colon cancer cell” value [4] is listed as “growth inhibition”.

For `CC(C(=O)Nc1ccccc1Cc1ccccc1C(=O)O)c1cccc2ccccc12` (centres unmarked) [ONO-AE2-227], the “formation of azoxymethane-induced colon aberrant crypt foci” value [5] is given as “reduced formation” and the “formation of intestinal polyp” value [6] is given as “reduced formation of intestinal polyp”.

For `CC(C(=O)Nc1cc(C#N)ccc1CCCC(=O)O)c1ccc(F)c2ccccc12` (centres unmarked) [ONO-AE3-208], the “metastasis of breast cancer cells” value (breast cancer cells) is given as “metastasis suppression”.
